{
  "source": "ChEMBL document CHEMBL1151158",
  "about": "“New nitrogenous Germacranes from a Thai marine sponge, Axinyssa n. sp” (2004)",
  "assay_type_in_all_cases": "functional",
  "key": {"Bacillus subtilis": {"tested_on": "Bacillus subtilis", "assay": "Antimicrobial activity against Bacillus subtilis ATCC 6633 at 500 ug/disk after 24 hrs by agar disk diffusion method"}, "Candida albicans": {"tested_on": "Candida albicans", "assay": "Antimicrobial activity against Candida albicans ATCC 10231 at 500 ug/disk after 24 hrs by agar disk diffusion method"}, "Staphylococcus aureus": {"tested_on": "Staphylococcus aureus", "assay": "Antimicrobial activity against Staphylococcus aureus ATCC 25923 at 500 ug/disk after 24 hrs by agar disk diffusion method"}},
  "note": "Calls of active or inactive are those of the source. No cut-off for these calls is given here.",
  "data": [
    {"smiles": "C/C1=C/C[C@H](C(C)(C)N)CC/C(C)=C\\CC1", "values": [
      {"measurement": "zone of inhibition at 500 µg/disc", "setting": "Bacillus subtilis; ATCC 6633, 24 h, read-out: IZ", "value": 22, "unit": "mm"},
      {"measurement": "zone of inhibition at 500 µg/disc", "setting": "Candida albicans; ATCC 10231, 24 h, read-out: IZ", "value": 27, "unit": "mm"},
      {"measurement": "zone of inhibition at 500 µg/disc", "setting": "Staphylococcus aureus; ATCC 25923, 24 h, read-out: IZ", "value": 23, "unit": "mm"}
    ]},
    {"smiles": "C/C1=C/C[C@H](C(C)(C)NC(=O)NC(C)(C)[C@H]2C/C=C(/C)CC/C=C(/C)CC2)CC/C(C)=C\\CC1", "values": [
      {"measurement": "Activity", "setting": "Bacillus subtilis", "value": "inactive"},
      {"measurement": "Activity", "setting": "Candida albicans", "value": "inactive"},
      {"measurement": "Activity", "setting": "Staphylococcus aureus", "value": "inactive"}
    ]}
  ]
}
